Experimental data as given in ChEMBL document CHEMBL1153095, “Design, synthesis and evaluation of 4,7-diamino-1,10-phenanthroline G-quadruplex ligands” (Bioorg Med Chem, 2009).

Columns and labels:
Format in all cases: nucleic-acid assay
Nucleic Acid [1] = assay: Stabilization of 5'-d[(G3T2A)3G3]-3' quadruplex DNA assessed as change in melting temperature at 5 uM by CD-spectrophotometry
Nucleic Acid [2] = assay: Stabilization of 5'-d[(G3T2A)3G3]-3' quadruplex DNA assessed as change in melting temperature at 10 uM by CD-spectrophotometry
Nucleic Acid [3] = assay: Stabilization of 5'-d[(G3T2A)3G3]-3' quadruplex DNA assessed as change in melting temperature at 20 uM by CD-spectrophotometry
Nucleic Acid [4] = assay: Binding affinity to 5'-d[(G3T2A)3G3]-3' quadruplex DNA by surface plasmon resonance
Nucleic Acid [5] = assay: Stabilization of 5'-d[(AT)10]-3' duplex DNA assessed as melting temperature at 20 uM by CD-spectrophotometry

Row | ΔTm (Nucleic Acid [1]) [°C] | ΔTm (Nucleic Acid [2]) [°C] | ΔTm (Nucleic Acid [3]) [°C] | Kd (Nucleic Acid [4]) [nM] | Tm (Nucleic Acid [5]) [°C] | Structure (SMILES)
1 | 2.4 | 10.6 | 13.1 | 450 |  | NCCCNc1ccnc2c1ccc1c(NCCCN)ccnc12
2 | 2.3 | 13 | 14.4 | 330 |  | CN(C)CCCCNc1ccnc2c1ccc1c(NCCCCN(C)C)ccnc12
3 | 1.8 | 8.8 | 10.5 | 820 |  | CN(C)CCNc1ccnc2c1ccc1c(NCCN(C)C)ccnc12
4 | 2.5 | 14.6 | 15.3 | 230 | 57 | NCCCCNc1ccnc2c1ccc1c(NCCCCN)ccnc12
5 | 2 | 7.6 | 9.9 | 720 |  | NCCNc1ccnc2c1ccc1c(NCCN)ccnc12
6 |  |  | 0.1 |  |  | Cc1ccnc2c1ccc1c(C)ccnc12
7 | 6 | 14.2 | 16.6 | 410 |  | N=C(N)NCCCNc1ccnc2c1ccc1c(NCCCNC(=N)N)ccnc12
8 |  |  | 1.3 |  |  | Nc1ccnc2c1ccc1c(N)ccnc12
9 |  |  | 0 |  |  | c1cnc2c(c1)ccc1cccnc12
10 | 1.9 | 10.6 | 13.3 | 300 |  | CN(C)CCCNc1ccnc2c1ccc1c(NCCCN(C)C)ccnc12
11 | 6.1 | 14.7 | 17.3 | 330 | 63 | N=C(N)NCCCCNc1ccnc2c1ccc1c(NCCCCNC(=N)N)ccnc12
12 | 3 | 9.9 | 13.7 | 400 |  | N=C(N)NCCNc1ccnc2c1ccc1c(NCCNC(=N)N)ccnc12
